According to publication PMC8222343, “A new non-classical fold of varroa odorant-binding proteins reveals a wide open internal cavity” (Scientific Reports, 2021):

How the values were obtained:
Type in all cases: binding
VdesOBP2 = target: T1, VdesOBP2 (Varroa destructor, UniProt A0A7M7JBN7); assay: intrinsic tryptophan fluorescence quenching; details: excitation 295 nm, emission 335-340 nm
T1 sequence (A0A7M7JBN7 16-163 limits assumed): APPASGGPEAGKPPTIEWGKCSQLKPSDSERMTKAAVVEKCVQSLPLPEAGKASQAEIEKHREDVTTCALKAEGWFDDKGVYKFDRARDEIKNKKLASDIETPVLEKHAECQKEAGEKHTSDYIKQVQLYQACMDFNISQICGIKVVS

VdesOBP1 = target: T2, VdesOBP1 (Varroa destructor, UniProt A0A7M7KVA6); assay: intrinsic tryptophan fluorescence quenching
T2 construct: 147 residues; monomer
T2 sequence (A0A7M7KVA6 16-162): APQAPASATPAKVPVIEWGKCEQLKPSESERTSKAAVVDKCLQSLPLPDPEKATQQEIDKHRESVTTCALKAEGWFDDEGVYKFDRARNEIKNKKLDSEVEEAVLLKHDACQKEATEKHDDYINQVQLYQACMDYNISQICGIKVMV

VdesOBP5 = target: T3, VdesOBP5 (Varroa destructor, UniProt A0A7M7KHR4); assay: fluorescent probe titration; details: read-out: KNPN
T3 sequence (A0A7M7KHR4 22-231): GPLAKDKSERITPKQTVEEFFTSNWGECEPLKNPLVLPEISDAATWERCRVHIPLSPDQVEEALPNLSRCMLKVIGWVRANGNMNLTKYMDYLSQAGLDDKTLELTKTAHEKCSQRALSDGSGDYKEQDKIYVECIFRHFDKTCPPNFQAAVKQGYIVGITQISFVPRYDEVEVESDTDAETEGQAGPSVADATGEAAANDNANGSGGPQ
From the text: fluorescent probe titration on VdesOBP5 | with VdesOBP4 and VdesOBP5 we obtained clear binding curves using 1-NPN as the fluorescent reporter

[1] = excitation 295 nm, emission 335-340 nm

SMILES	quenching of intrinsic tryptophan fluorescence (VdesOBP2)	quenching of intrinsic tryptophan fluorescence (VdesOBP1; [1])	quenching of intrinsic tryptophan fluorescence (VdesOBP1; dose-dependent quenching, probe emission itself unchanged)	Kd (VdesOBP5)
COc1cc(/C=C/C=O)ccc1O [coniferyl aldehyde]	they determined significant quenching of intrinsic tryptophan fluorescence in VdesOBP1 and VdesOBP2	they determined significant quenching of intrinsic tryptophan fluorescence in VdesOBP1 and VdesOBP2	–	–
c1ccc(Nc2cccc3ccccc23)cc1 [N-phenyl-1-naphthylamine]	–	–	we observed a dose-dependent quenching of the intrinsic tryptophan fluorescence	4.3 µM
COc1cc(C=O)ccc1O [vanillin]	they determined significant quenching of intrinsic tryptophan fluorescence in VdesOBP1 and VdesOBP2	they determined significant quenching of intrinsic tryptophan fluorescence in VdesOBP1 and VdesOBP2	–	–
CC1=C(C=O)C(C)(C)CC=C1 [safranal]	they determined significant quenching of intrinsic tryptophan fluorescence in VdesOBP1 and VdesOBP2	they determined significant quenching of intrinsic tryptophan fluorescence in VdesOBP1 and VdesOBP2	–	–
